Assay results from article PMC8026324, “In Vitro Antiplasmodial, Heme Polymerization, and Cytotoxicity of Hydroxyxanthone Derivatives” (Journal of Tropical Medicine, 2021).
Read-outs that look alike come from different tables or passages of the source.

What was measured:
[1] = test system: Plasmodium falciparum FCR-3 (chloroquine-resistant strain); assay: In vitro antiplasmodial activity assay, microscopic method, strain FCR-3; type: cell-based; conditions: Plasmodium falciparum
Experimental: (§1) The test of antiplasmodial activity began with the culture of P. falciparum 3D-7 and FCR-3 using the modified Trager and Jensen method. The plasmodium was cultured in human O red blood cells diluted to 3% haematocrit in RPMI 1640 medium complemented with 10% human O serum. The medium was made by adding 10.43 g of powder RPMI 1640, 6 g HEPES, 2 g NaHCO3, 25 mg gentamycin, and sterile distilled water up to 1 L. The medium pH was adjusted so that it reached ±7.2. It was sterilized using a 0.22 μm filter and stored at 4°C. The complete plasmodium culture medium was made by adding human serum with a concentration of 10% in the medium. The plasmodium culture was incubated in candle jar in an incubator with a temperature of 37°C and was observed every 24 hours.
(§2) The plasmodium was synchronized to obtain the ring stage by adding 5% of D-sorbitol. The plasmodium was transferred from culture flask to a conical tube, and then it was centrifuged with a speed of 1000 rpm for 10 minutes. After the supernatant was disposed, the sterile 5% sorbitol was added and incubated for 10 minutes at a temperature of 37°C. The plasmodium suspension was centrifuged again; the supernatant was disposed and the plasmodium was washed by adding culture medium. Then, the plasmodium suspension was centrifuged again, and the supernatant was discarded, resulting in a plasmodium in ring stage only. The parasitemia was calculated from a thin blood preparation. The test used 1% parasitemia at 2% haematocrit in RPMI medium which complemented with 10% human O serum.
(§3) Each testing compound was dissolved in RPMI medium. The testing compound in various concentrations with volume of 100 μL was incorporated into the 96-well microplate, and then 100 μL of Plasmodium suspension was added. Each series of concentrations was replicated three times. The microplate was incubated at a temperature of 37°C for 72 hours. At the end of the incubation, a thin blood smear was made using 10% Giemsa stain and observed under a light microscope at 1000x magnification. The percentage of parasitemia (counting a minimum of 1,000 erythrocytes) was calculated from the preparation of thin blood and then used to calculate the percentage of plasmodium growth inhibition. […] Antiplasmodial activity is expressed as IC50, which is the concentration of a compound that is required for 50% inhibition of plasmodium growth. The IC50 value was calculated by probit analysis using SPSS software (IBM Corp., Chicago). The lower the IC50 value obtained, the greater the antiplasmodial activity.

[2] = test system: Plasmodium falciparum 3D-7 (chloroquine-sensitive strain); assay: In vitro antiplasmodial activity assay, microscopic method, strain 3D-7; type: cell-based; conditions: Plasmodium falciparum
Experimental: as §1, §2, §3

[3] = test system: formation of β-hematin (heme polymerization); conditions: read-out: IC50 of chloroquine for heme polymerization inhibition, reference value; threshold reference value; cited from earlier work
[4] = test system: formation of β-hematin (heme polymerization); assay: In vitro heme polymerization inhibitory activity (HPIA) assay; type: biochemical
Experimental: The heme polymerization inhibitory activity (HPIA) was conducted according to Basilico et al.'s modified method. The 100 μL of 1 mM hematin in 0.2 M NaOH was added into a microtube. […] Distilled water was used as a negative control. The 50 μL solution of glacial acetic acid (pH 2.6) was added into the microtube to initiate the polymerization reaction and incubated at a temperature of 37°C for 24 hours. Microtubes were centrifuged at 8000 rpm for 10 minutes and the supernatant was discarded and then washed three times using the 200 μL dimethyl sulfoxide (DMSO).Then, the deposition of the hematin crystal was dissolved with 200 μL of 0.1 M NaOH and 100 μL of solution was added into the 96-well microplate.
Absorbance was read using ELISA reader at λ 405 nm. A standard curve was made to illustrate the relationship between the concentration of hematin and its absorbance. The various concentrations of hematin (250; 125; 62.5; 31.25; 15.6; 7.8; and […]) were used to make the standard curve. The heme polymerization inhibition was expressed as IC50, which is the concentration of testing compounds that can inhibit 50% of the formation of β-hematin. The IC50 value was calculated by probit analysis using SPSS software (IBM Corp., Chicago).

[5] = FCR3, read-out: Growth inhibition of P. falciparum Strain FCR-3
[6] = read-out: Growth inhibition of P. falciparum Strain 3D-7

CCN(CC)CCCC(C)Nc1ccnc2cc(Cl)ccc12 (stereo not drawn) [Chloroquine, reference compound]
IC50 ([1]; FCR3, 72 h, read-out: IC50 on P. falciparum FCR-3): 110 ± 52 nM
inhibition at 0.008 µM [1, 5]: 18.7 ± 9.23%
inhibition at 0.016 µM [1, 5]: 78.6 ± 4.51%
inhibition at 0.023 µM [1, 5]: 79.9 ± 3.86%
inhibition at 0.029 µM [1, 5]: 82.6 ± 2.94%
inhibition at 0.037 µM [1, 5]: 84.2 ± 2.45%
IC50 ([2]; 72 h, read-out: IC50 on P. falciparum 3D-7): 10 ± 1 nM
inhibition at 0.008 µM [2, 6]: 54.4 ± 12.4%
inhibition at 0.016 µM [2, 6]: 96.4 ± 1.13%
inhibition at 0.023 µM [2, 6]: 96.6 ± 1.33%
inhibition at 0.029 µM [2, 6]: 97.49 ± 0.517%
inhibition at 0.037 µM [2, 6]: 97.77 ± 0.69%
IC50 [3]: 37.5 mM
IC50 ([4]; 24 hours, 37°C, glacial acetic acid pH 2.6): 1.48 mM
Inhibition of β-hematin ([4]; compound 0.601 mM): 29.080%
β-Hematin formed ([4]; compound 0.601 mM): 77.787 mM
Inhibition of β-hematin ([4]; compound 1.221 mM): 47.315%
β-Hematin formed ([4]; compound 1.221 mM): 57.787 mM
Inhibition of β-hematin ([4]; compound 2.423 mM): 56.379%
β-Hematin formed ([4]; compound 2.423 mM): 47.845 mM
Inhibition of β-hematin ([4]; compound 4.846 mM): 79.906%
β-Hematin formed ([4]; compound 4.846 mM): 22.040 mM
Inhibition of β-hematin ([4]; compound 9.692 mM): 88.604%
β-Hematin formed ([4]; compound 9.692 mM): 12.500 mM
